pIC50, pKd: −log10 of the molar value. The source made the active and inactive calls. No cut-off for these calls is given here.
Key:
MC-38 [1] = assay: Induction of immune response mediated antitumor activity in mouse MC38 cells xenografted in C57/BL mouse assessed as tumor growth inhibition at 40 mg/kg, ip administered every other day from day 6 post implantation measured every 2 days; type: functional, organism-based
[2] = Toxicity in mouse MC38 cells xenografted C57/BL mouse assessed as change in body weight at 40 mg/kg, ip administered every other day from day 6 post implantation measured every 2 days; type: organism-based; conditions: in vivo, 48 h
MC-38 [3] = assay: Immunomodulatory activity in mouse MC38 cells xenografted in C57/BL mouse assessed as increase in infiltration of CD3-positive T cells at 40 mg/kg, ip administered every other day from day 6 post implantation by DAPI staining based immunofluorescence microscopy; type: functional, organism-based
MC-38 [4] = assay: Immunomodulatory activity in mouse MC38 cells xenografted in C57/BL mouse assessed as increase in perforin at 40 mg/kg, ip administered every other day from day 6 post implantation by hematoxylin staining based immunohistochemical analysis; type: functional, organism-based
MC-38 [5] = assay: Immunomodulatory activity in mouse MC38 cells xenografted in C57/BL mouse assessed as increase in granzyme B at 40 mg/kg, ip administered every other day from day 6 post implantation by hematoxylin staining based immunohistochemical analysis; type: functional, organism-based
MC-38 [6] = assay: Immunomodulatory activity in mouse MC38 cells xenografted in C57/BL mouse assessed as increase in infiltration of CD8-positive T cells at 40 mg/kg, ip administered every other day from day 6 post implantation by DAPI staining based immunofluorescence microscopy; type: functional, organism-based
MDA-MB-231 [7] = assay: Immunomodulatory activity in human MDA-MB-231 cells cocultured with human PBMC assessed as induction of PBMC recruitment to MDA-MB-231 cells by measuring increase in activated caspase-3 at 20 uM incubated for 24 hrs by GrennNuc caspase-3 substrate based assay; type: functional, cell-based
MDA-MB-231 [8] = assay: Immunomodulatory activity in human CFDA SE-labelled MDA-MB-231 cells cocultured with PMBC assessed as induction of PBMC recruitment to MDA-MB-231 cells by measuring early apoptotic cells at 20 uM incubated for 48 hrs by propidium iodide staining based flow cytometry analysis (reference value: 0 %); type: functional
MDA-MB-231 [9] = assay: Immunomodulatory activity in human CFDA SE-labelled MDA-MB-231 cells cocultured with PMBC assessed as induction of PBMC recruitment to MDA-MB-231 cells by measuring viable cells at 20 uM incubated for 48 hrs by propidium iodide staining based flow cytometry analysis (reference value: 99.87 %); type: functional
MDA-MB-231 [10] = assay: Immunomodulatory activity in human CFDA SE-labelled MDA-MB-231 cells cocultured with PMBC assessed as induction of PBMC recruitment to MDA-MB-231 cells by measuring late apoptotic cells at 20 uM incubated for 48 hrs by propidium iodide staining based flow cytometry analysis (reference value: 0 %); type: functional
MDA-MB-231 [11] = assay: Immunomodulatory activity in human CFDA SE-labelled MDA-MB-231 cells cocultured with PMBC assessed as induction of PBMC recruitment to MDA-MB-231 cells by measuring necrotic cell at 20 uM incubated for 48 hrs by propidium iodide staining based flow cytometry analysis (reference value: 0.13 %); type: functional
[12] = Toxicity in mouse MC38 cells xenografted C57/BL mouse assessed as death at 40 mg/kg, ip administered every other day from day 6 post implantation measured on day 14; type: organism-based; conditions: in vivo, time 14 day, read-out: Activity
[13] = Induction of immune response mediated antitumor activity in mouse B16F10 cells xenografted in C57/BL mouse assessed as reduction in tumor weight at 40 mg/kg, ip administered every other day from day 6 post implantation measured every 2 days relative to control; type: functional, B16-F10; parameters: scale not given: the % may be the effect or the level left
[14] = Induction of apoptosis in human PBMC cells assessed as activated caspase-3 at 20 uM incubated for 24 hrs by GrennNuc caspase-3 substrate based assay; type: cell-based
B16-F10 [15] = assay: Induction of immune response mediated antitumor activity in mouse B16F10 cells xenografted in C57/BL mouse assessed as change in ratio of CD8+/CD3+ cells at 40 mg/kg, ip administered every other day from day 6 post implantation by flow cytometry; type: functional, organism-based
B16-F10 [16] = assay: Induction of immune response mediated antitumor activity in mouse B16F10 cells xenografted in C57/BL mouse assessed as change in ratio of CD3+/CD45+ cells at 40 mg/kg, ip administered every other day from day 6 post implantation by flow cytometry; type: functional, organism-based
[17] = Induction of immune response mediated antitumor activity in mouse B16F10 cells xenografted in C57/BL mouse assessed as infiltration of CD8 cells at 40 mg/kg, ip administered every other day from day 6 post implantation by flow cytometry (reference value: 26.9 %); type: functional, B16-F10
[18] = Induction of immune response mediated antitumor activity in mouse B16F10 cells xenografted in C57/BL mouse assessed as infiltration of CD3 cells at 40 mg/kg, ip administered every other day from day 6 post implantation by flow cytometry (reference value: 1.45 %); type: functional, B16-F10
[19] = Induction of immune response mediated antitumor activity in mouse B16F10 cells xenografted in C57/BL mouse assessed as infiltration of CD45 cells at 40 mg/kg, ip administered every other day from day 6 post implantation by flow cytometry (reference value: 1.81 %); type: functional, B16-F10
B16-F10 [20] = assay: Induction of immune response mediated antitumor activity in mouse B16F10 cells xenografted in C57/BL mouse coadministered with anti-CD8 antibody assessed as suppression of tumor growth at 40 mg/kg, ip administered every other day from day 6 post implantation measured every 2 days; type: functional, organism-based
[21] = Induction of immune response mediated antitumor activity in mouse B16F10 cells xenografted in C57/BL mouse assessed as reduction in tumor volume at 40 mg/kg, ip administered every other day from day 6 post implantation measured every 2 days relative to control; type: functional, B16-F10; parameters: scale not given: the % may be the effect or the level left
B16-F10 [22] = assay: Toxicity in mouse B16F10 cells xenografted C57/BL mouse assessed as change in body weight at 40 mg/kg, ip administered every other day from day 6 post implantation measured every 2 days; type: organism-based; conditions: in vivo, 48 h
MDA-MB-231 [23] = assay: Induction of apoptosis in human MDA-MB-231 cells assessed as activated caspase-3 at 20 uM incubated for 24 hrs by GrennNuc caspase-3 substrate based assay; type: cell-based; conditions: mda-mb-231, 24 h
MDA-MB-231 [24] = assay: Immunomodulatory activity in human MDA-MB-231 cocultured with PMBC assessed as induction of PBMC recruitment to MDA-MB-231 cells by measuring increase in cell cluster at 20 uM incubated for 12 to 48 hrs by EVOS FL digital microscopic analysis; type: functional, cell-based; conditions: time hrs 12-48
MDA-MB-231 [25] = assay: Immunomodulatory activity in human MDA-MB-231 cells expressing luciferase assessed as induction of PBMC-induced cell death incubated for 72 hrs by LDH assay; type: functional, cell-based; conditions: dose microM 0.313-80, time 72.0 hrs
MDA-MB-231 [26] = assay: Cytotoxicity against human MDA-MB-231 cells expressing luciferase assessed as reduction in cell viability at 0.312 to 80 uM incubated for 72 hrs by tecan-plate reader based luciferase assay; conditions: mda-mb-231, 72 h, dose 0.312-80 µM
MDA-MB-231 [27] = assay: Cytotoxicity against human MDA-MB-231 cells assessed as reduction in cell viability at 0.312 to 80 uM incubated for 72 hrs by MTT assay; type: cell-based; conditions: mda-mb-231, 72 h, dose 0.312-80 µM
[28] = target: T1, Programmed cell death protein 1/Programmed cell death 1 ligand 1 (Homo sapiens, UniProt Q9NZQ7); assay: Inhibition of FC-tagged PD1/His-tagged PD-L1 (unknown origin) protein-proteiinteraction incubated for 3 hrs by coimmunoprecipitation-based Western blot assay; type: protein-complex assay
[29] = target: Programmed cell death protein 1 (Homo sapiens, UniProt Q15116); assay: Binding affinity to PD1 (unknown origin) by SPR analysis
[30] = target: Programmed cell death 1 ligand 1 (Homo sapiens, UniProt Q9NZQ7); assay: Binding affinity to PDL1 (unknown origin) by SPR analysis
[31] = target: T1, Programmed cell death protein 1/Programmed cell death 1 ligand 1; assay: Inhibition of PD1-Tag2/PD-L1-Tag1 (unknown origin) protein-protein interaction preincubated for 15 mins followed by addition of anti-Tag1-Eu3+ and anti-Tag2-XL665 measured after 3 hrs by HTRF assay; type: protein-complex assay
MDA-MB-231 [32] = assay: Immunomodulatory activity in human MDA-MB-231 cells expressing luciferase assessed as induction of PBMC-induced cell death incubated for 72 hrs by tecan-plate reader based luciferase assay; type: functional; conditions: dose microM 0.313-80, time 72.0 hrs
[33] = target: Programmed cell death protein 1/Programmed cell death 1 ligand 1 (Homo sapiens) (UniProt Q15116+Q9NZQ7); assay: Inhibition of PD1-Tag2/PD-L1-Tag1 (unknown origin) protein-protein interaction at 20 uM preincubated for 15 mins followed by addition of anti-Tag1-Eu3+ and anti-Tag2-XL665 measured after 3 hrs by HTRF assay relative to control; type: protein-complex assay; conditions: time 195.0 min

T1 sequence (Q15116 whole entry): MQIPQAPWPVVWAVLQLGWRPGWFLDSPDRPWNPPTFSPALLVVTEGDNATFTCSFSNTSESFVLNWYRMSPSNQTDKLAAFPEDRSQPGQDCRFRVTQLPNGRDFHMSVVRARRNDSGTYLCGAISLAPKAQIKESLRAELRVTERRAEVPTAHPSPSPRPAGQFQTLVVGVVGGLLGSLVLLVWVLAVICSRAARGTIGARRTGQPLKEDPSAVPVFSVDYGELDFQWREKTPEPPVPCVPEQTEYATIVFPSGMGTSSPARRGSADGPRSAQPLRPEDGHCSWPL
T1 sequence (Q9NZQ7 whole entry): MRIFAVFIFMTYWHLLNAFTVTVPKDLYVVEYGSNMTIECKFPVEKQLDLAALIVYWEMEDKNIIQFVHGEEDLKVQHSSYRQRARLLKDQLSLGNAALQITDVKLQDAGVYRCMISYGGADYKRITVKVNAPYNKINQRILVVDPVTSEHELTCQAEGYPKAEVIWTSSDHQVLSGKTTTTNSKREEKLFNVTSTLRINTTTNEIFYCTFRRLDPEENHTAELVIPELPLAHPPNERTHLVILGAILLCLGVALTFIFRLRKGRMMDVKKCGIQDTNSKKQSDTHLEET
Programmed cell death 1 ligand 1, sequence (Q9NZQ7 whole entry): as above
Programmed cell death protein 1, sequence (Q15116 whole entry): as the sequence (Q15116 whole entry) above

## Cc1c(COc2ccc(CN3CCCCC3C(=O)O)cc2Br)cccc1-c1ccccc1 (centres undefined)
MC-38 [1]
  TGI: Active
[2]
  Activity: Toxic
MC-38 [3]
  Activity: Active
MC-38 [4]
  Activity: Active
MC-38 [5]
  Activity: Active
MC-38 [6]
  Activity: Active
MDA-MB-231 [7]
  Activity: Active
MDA-MB-231 [8]
  Activity: 55%
MDA-MB-231 [9]
  Activity: 0.31%
MDA-MB-231 [10]
  Activity: 44.69%
MDA-MB-231 [11]
  Activity: 0%
[12]
  mortality at 336 h: 75%

## CC(NCCCC[C@@H]1NC(=O)[C@@H](Cc2ccccc2)NC(=O)[C@H](CC(C)C)NC(=O)[C@H](CC(=O)O)NC(=O)[C@H]([C@@H](C)O)NC(=O)[C@@H]2CCCN2C(=O)[C@@H](Cc2c[nH]c3ccccc23)NC(=O)[C@H](CC(C)C)NC(=O)[C@H](CCCNC(=N)N)NC(=O)[C@H](C(C)C)NC1=O)=C1C(=O)CC(C)(C)CC1=O
[13]
  Activity: 64.9%
[14]
  Activity: Non-Toxic
B16-F10 [15]
  Activity: inactive
B16-F10 [16]
  Activity: inactive
[17]
  Activity: 36.5%
[18]
  Activity: 5.21%
[19]
  Activity: 13.3%
B16-F10 [20]
  Activity: inactive
[21]
  Activity: 54.8%
B16-F10 [22]
  Activity: Non-Toxic
MC-38 [1]
  TGI: Active
[2]
  Activity: Non-Toxic
MC-38 [3]
  Activity: Active
MC-38 [4]
  Activity: Active
MC-38 [5]
  Activity: Active
MC-38 [6]
  Activity: Active
MDA-MB-231 [7]
  Activity: Active
MDA-MB-231 [23]
  Activity: Non-Toxic
MDA-MB-231 [24]
  Activity: Active
MDA-MB-231 [8]
  Activity: 42.33%
MDA-MB-231 [9]
  Activity: 0.46%
MDA-MB-231 [10]
  Activity: 57.03%
MDA-MB-231 [11]
  Activity: 0%
MDA-MB-231 [25]
  Activity: Dose-dependent effect
MDA-MB-231 [26]
  Activity: Non-Toxic
MDA-MB-231 [27]
  Activity: Non-Toxic
[28]
  pIC50: 6.35
[29]
  pKd: 2.78
[30]
  pKd: 5.25
[31]
  pIC50: 5.85
MDA-MB-231 [32]
  Activity: Dose-dependent effect
[33]
  inhibition: 95.8%
